Results taken from patent US4622327A, “2H-azeto[2,1-a]-isoquinoline derivatives and pharmaceutical compositions containing them” (Richter Gedeon Vegyeszeti Gyar R.T., priority 1983, dated 1986).

Tests used:
pentylenetetrazole spasm = assay: Metrazole spasm; type: in vivo; settings: mice, 30 mg/kg oral, pentylenetetrazole 125 mg/kg s.c., observation one hour
Description: (§1) For the pharmacological tests CFLP (LATI) mice of both sexes, weighing 18 to 22 g each and male Han. Wistar (LATI) rats weighing 160 to 180 g each were used. The test materials were administered orally, in 30 mg/kg doses, in the form of a suspension containing 5% of Tween 80, one hour before the tests.
2. Metrazole spasm (mice)
After pretreatment the animals were administered 125 mg/kg of pentylenetetrazole subcutaneously.
Observation time: one hour (Everett L. M. and Richards R. K.: J. Pharmacol. Exp. Ther. 81, 402/1944/).

[1] = tested on: hyperthermia induced with Brewer's yeast; assay: Antipyretic activity (Brewer's yeast hyperthermia); type: in vivo, rats; settings: for ED50: Rattus norvegicus, po, read-out: Antipyretic activity, ED50
Description: as §1
5. Antipyretic activity (rats)
Hyperthermia is induced in rats with Brewer's yeast suspension (0.5% of Brewer's yeast, 1% of arabic gum in a volume of 0.3 ml, s.c.). The animals are treated with the test materials 4 hours later, and the tracheal temperature of the animals is registered with an ELAB thermometer (typ. TE-3) for 4 hours. The antipyretic activity is expressed in percentage of the animals which have an at least one centrigrade lower temperature than the average of the temperature of the control group treated with the solvent (Nimegeers C. J. E. et al.: Arzneimittel Forsch. 25:15/9/1975/).

[2] = tested on: acetic acid-induced writhing syndrome; assay: Analgesic activity (acetic acid writhing syndrome); type: in vivo, mice; settings: for Analgesic activity: 30 mg/kg oral, change in writhing frequency vs control
Description: as §1
4. Analgesic activity (mice)
One hour after pretreatment, mice were administered 0.4 ml of a 0.6% acetic acid solution intraperitoneally, as a pain stimulus. The frequency of writhing syndrome is registered for 30 minutes. The changes observed as a result of treatment with the test compounds is related to the mean value of the frequency of writhing syndrome in the control group, and the difference is expressed in percentage (Koster R. et al.: Exp. Ther. 72:74/1941/).

tonic, extensoric spasm = assay: Maximum electroshock; type: in vivo; settings: mice, 30 mg/kg oral, one hour before test
Description: as §1
1. Maximum electroshock (mice)
The shock was applied through a corneal electrode (20 mA, 0.2 msec, HSE Schockgerat typ. 207).

SMILES	Antispasm activity, metrazole, b (tonic extensoric spasm) (pentylenetetrazole spasm)	ED50 [1]	analgesic effect in words ([2]; 30 mg/kg)	ED50 ([2]; Mus musculus, po, read-out: Analgesic activity, ED50)	antipyretic potency relative to Na-salicylate ([1]; rats)	decrease of the frequency of acetic acid-induced writhing syndrome ([2]; mice, 30 mg/kg)	Analgesic activity ([2]; mice)	Antispasm activity, max. electroshock (tonic, extensoric spasm)	Antipyretic activity ([1]; rats, 30 mg/kg oral, % of animals with at least one centigrade lower temperature than control)
O=C(O)c1ccccc1O [Na--salycilate, reference compound]	20.0	110 mg/kg	ineffective	113 mg/kg					
COc1cc2c(cc1OC)C1C(CCl)CN1CC2.I (stereo not shown) [Compound A, 1-(chloromethyl)-7,8-dimethoxy-1,4,5,9b-tetrahydro-2H-azeto[2,1-a]isoquinoline hydroiodide]	20.0	75 mg/kg			one and a half-times more potent	about 30%	30.0%		
CCOc1cc2c(cc1OCC)C1C(CCl)CN1CC2.Cl (stereo not shown) [Compound B, 1-(chloromethyl)-7,8-diethoxy-1,4,5,9b-tetrahydro-2H-azeto[2,1-a]isoquinoline hydrochloride]	24.0						20.0%	20.0	30.0%
